Patent publication US20240076699A1, “BIOSYNTHESIS OF SUBSTITUTED COMPOUNDS AND CANNABINOIDS” (Invizyne Technologies, Inc., priority 2022, published 2024)

Legend:
[1] = results in an inactive metabolite; cited from earlier work
[2] = nLC-MS/MS of CBGA and dCBGA samples after one hour; assay type: in vitro ADME
Protocol: (§1) Additional samples were subjected to nano-scale liquid chromatographic tandem mass spectrometry (nLC-MS/MS). Samples were prepared using 2 μL of standard and 198 μL of 50:50 water:acetonitrile in 0.1% formic acid. A 1 μL sample was injected.

[3] = Solubility in nonane overlay versus water; assay type: physicochemical
[4] = biological target: Bovine serum albumin (BSA) (Bos taurus, UniProt P02769); experiment: BSA binding seen during extraction; conditions: reaction mixture extraction
From the text: In one embodiment, upon formation of the THCA compound of the present invention, the compound is purified to isolate the produced THCA. The extraction of CBGA and THCA into ethylacetate formed an emulsion which could only be partially broken with the addition of hexane. Bovine serum albumin (BSA) binds both CBGA and THCA tightly and thus not all of the product is recoverable in the organic phase of the purification process. However, acid precipitation of the BSA with the addition of 1% HCl allows for the denaturation of BSA and subsequent unbinding of the CBGA and THCA to allow extraction and purification. In one embodiment, the HCl is added directly to the reaction mixture, which is then incubated for about 10 minutes to assure full denaturation of BSA. The mixture is then centrifuged for about 30 minutes at 4000 g. After centrifuging the mixture, the CBGA and THCA coprecipitate into pelleted form. The pellet is then washed with water until the water reaches a neutral pH. The pellet is then resuspended in methanol using vigorous vortexing. The methanol mixture was rotavapped over a water bath at 40° C., and the resulting oil was resuspended in ethanol. The THCA then precipitates as a brown oil. The reaction mixture is then filtered and washed with water and then resuspended in hexane. The hexane was then rotavapped to remove mass added to the product by excess […]. […]

[5] = nLC-MS/MS comparison of CBGA and dCBGA after one hour (degradation); assay type: in vitro ADME; conditions: matrix not stated
Protocol: as §1
Table 10 compares nLC-MS/MS data for the CBGA samples and dCBGA samples after one hour.
FIG. 26 illustrates a graph comparing CBGA and dCBGA. Sample 1, Sample 2, and Sample 3 are shown left to right for both CBGA and dCBGA.

[6] = biological target: T1, methionine adenosyltransferase (MAT) from Thermococcus kodakarensis (tk) (Thermococcus kodakarensis, UniProt Q5JF22); conditions: 5 mM met or d3-met, 10 μM MAT, 1 h room temperature
T1 sequence (Q5JF22 1-405): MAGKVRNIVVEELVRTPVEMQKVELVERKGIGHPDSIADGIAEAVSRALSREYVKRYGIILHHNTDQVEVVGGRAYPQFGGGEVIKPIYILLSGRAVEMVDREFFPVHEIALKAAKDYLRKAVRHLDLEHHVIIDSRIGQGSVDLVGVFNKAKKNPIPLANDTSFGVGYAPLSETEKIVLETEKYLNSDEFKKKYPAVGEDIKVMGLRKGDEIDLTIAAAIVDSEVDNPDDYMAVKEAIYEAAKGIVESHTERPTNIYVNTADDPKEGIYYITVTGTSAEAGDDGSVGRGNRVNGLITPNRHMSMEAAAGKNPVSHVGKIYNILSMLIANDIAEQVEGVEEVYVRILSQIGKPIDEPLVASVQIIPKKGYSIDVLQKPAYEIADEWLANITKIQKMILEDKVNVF

[7] = biological target: T2, methionine adenosyltransferase (MAT) from Methanocaldococcusjannaschii (mj) (Methanocaldococcus jannaschii, UniProt Q58605); conditions: 5 mM met or d3-met, 10 μM MAT, 1 h room temperature
T2 sequence (Q58605 1-406): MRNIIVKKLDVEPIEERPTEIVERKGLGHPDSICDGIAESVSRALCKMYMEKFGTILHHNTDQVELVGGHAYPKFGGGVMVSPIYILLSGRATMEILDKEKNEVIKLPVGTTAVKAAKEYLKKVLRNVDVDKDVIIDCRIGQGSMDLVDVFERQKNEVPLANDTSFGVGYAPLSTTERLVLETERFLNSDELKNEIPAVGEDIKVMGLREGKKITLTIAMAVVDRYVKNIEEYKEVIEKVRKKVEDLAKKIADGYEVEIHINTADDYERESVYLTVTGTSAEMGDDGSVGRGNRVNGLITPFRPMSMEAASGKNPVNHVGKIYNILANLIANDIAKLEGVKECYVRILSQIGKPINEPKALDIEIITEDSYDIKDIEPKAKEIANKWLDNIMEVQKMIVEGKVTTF

Chain of Bovine serum albumin (BSA) (P02769 25-607): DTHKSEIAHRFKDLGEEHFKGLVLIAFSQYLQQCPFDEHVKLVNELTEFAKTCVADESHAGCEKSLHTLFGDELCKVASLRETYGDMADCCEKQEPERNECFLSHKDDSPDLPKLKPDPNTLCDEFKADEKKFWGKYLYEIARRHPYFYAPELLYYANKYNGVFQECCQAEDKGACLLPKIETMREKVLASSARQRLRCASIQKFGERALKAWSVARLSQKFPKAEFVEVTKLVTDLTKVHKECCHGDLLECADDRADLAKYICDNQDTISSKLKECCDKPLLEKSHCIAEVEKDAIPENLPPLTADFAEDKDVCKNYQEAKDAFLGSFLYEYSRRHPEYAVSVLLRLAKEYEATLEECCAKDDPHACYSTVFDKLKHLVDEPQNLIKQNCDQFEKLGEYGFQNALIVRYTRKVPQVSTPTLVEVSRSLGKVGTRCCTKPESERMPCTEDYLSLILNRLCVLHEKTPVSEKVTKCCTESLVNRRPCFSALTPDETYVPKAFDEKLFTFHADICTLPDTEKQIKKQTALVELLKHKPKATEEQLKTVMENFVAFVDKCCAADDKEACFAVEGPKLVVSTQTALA

C=C(C)[C@@H]1CCC(C)=C[C@H]1c1c(O)cc(CCCCC)cc1O [CBD, cannabidiol]
metabolites with cleavage of the 5′ pentyl tail [1]: ~25%

CCCCCc1cc(O)c(C/C=C(\C)CCC=C(C)C)c(O)c1C(=O)O [CBGA, cannabigerolic acid, reference compound]
degradation after one hour, CBGA compared with dCBGA [2]: CBGA is significantly more degraded after one hour than dCBGA
solubility in water compared with nonane [3]: more soluble in water than nonane
binding by BSA [4]: tightly

CCCCCc1cc(O)c(C/C=C(\C)CCC=C(C)C)c(O)c1C(=O)O [CBGA, cannabigerolic acid]
degradation after one hour compared with dCBGA [5]: significantly more degraded after one hour than dCBGA

CCCc1cc(O)c(C/C=C(\C)CCC=C(C)C)c(O)c1C(=O)O [CBGVA, cannabierovarinic acid]
solubility in nonane [3]: limited solubility

CCCCCc1cc2c(c(O)c1C(=O)O)[C@@H]1C=C(C)CC[C@H]1C(C)(C)O2 [THCA, tetrahydrocannabinolic acid]
binding by BSA [4]: tightly

[2H]C([2H])([2H])SCC[C@H](N)C(=O)O [d3-met, d3-L-methionine]
MAT activity on substrate (Pi released per hour) [6]: equally active
MAT activity on substrate (Pi released per hour) [7]: equally active

CCCCCc1cc(O)c(C/C=C(\C)CCC=C(C)C)c(O)c1C(=O)O [dCBGA, d11-cannabigerolic acid]
degradation after one hour, CBGA compared with dCBGA [2]: CBGA is significantly more degraded after one hour than dCBGA

CSCC[C@H](N)C(=O)O [met, methionine, reference compound]
MAT activity on substrate (Pi released per hour) [6]: equally active
MAT activity on substrate (Pi released per hour) [7]: equally active
